{"source": "patent US7528252B2", "about": "“Derivatives of triazoly-imidazopyridine useful as ligands of the adenosine A2a receptor and their use as medicaments” (Sigma-Tau Industrie Farmaceutiche Riunite S.p.A., priority 2002, dated 2009)", "key": {"[1]": {"biological_target": "T1, human A2b receptor (Homo sapiens, UniProt P29275)", "T1 construct": "expressed in transfected cells; host or cells: HEK 293", "T1 sequence (P29275 1-332)": "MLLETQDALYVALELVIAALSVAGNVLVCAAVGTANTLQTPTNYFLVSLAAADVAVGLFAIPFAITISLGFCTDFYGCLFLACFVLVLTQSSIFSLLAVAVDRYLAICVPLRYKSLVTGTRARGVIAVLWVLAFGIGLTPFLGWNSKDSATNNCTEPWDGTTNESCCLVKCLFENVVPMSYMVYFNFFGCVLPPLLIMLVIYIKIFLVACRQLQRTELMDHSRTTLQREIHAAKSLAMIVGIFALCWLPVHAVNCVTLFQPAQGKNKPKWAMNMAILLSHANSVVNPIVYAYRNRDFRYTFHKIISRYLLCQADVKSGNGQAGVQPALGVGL", "assay": "Affinity towards the adenosine A2b receptor ([3H]-DPCPX binding, HEK 293 membranes)", "conditions": "read-out: A2b Ki (nM) ± sd", "experimental": "The interactive capacity of each product towards the adenosine A2b receptor was evaluated using membranes from HEK 293 cells stably expressing the human A2b receptor subtype exclusively.\nNon-specific binding was measured in the presence of NECA (50 μM).\nIn binding studies for each compound, eight different concentrations (from 10^−5 M to 10^−12 M) were evaluated in order to obtain competition curves. By means of non-linear regression analysis of the competition curves, the IC50 values, which express the binding affinity of each product, were determined. Using the Cheng Prusoff equation (Ki=IC50/1+(L/Kd)) Ki values were calculated through which the affinity of each product studied, for the receptor investigated, is expressed."}, "[2]": {"system": "ADOtransporter", "assay": "Receptor binding study, ADO transporter", "conditions": "1 μM; mean values, n = 2"}, "[3]": {"system": "α2(non-selective)", "assay": "Receptor binding study, α2", "conditions": "1 μM; mean values, n = 2"}, "[4]": {"system": "BZD (central)", "assay": "Receptor binding study, BZD (central)", "conditions": "1 μM; mean values, n = 2"}, "[5]": {"biological_target": "D2 (Homo sapiens, UniProt P14416)", "sequence (P14416 whole entry)": "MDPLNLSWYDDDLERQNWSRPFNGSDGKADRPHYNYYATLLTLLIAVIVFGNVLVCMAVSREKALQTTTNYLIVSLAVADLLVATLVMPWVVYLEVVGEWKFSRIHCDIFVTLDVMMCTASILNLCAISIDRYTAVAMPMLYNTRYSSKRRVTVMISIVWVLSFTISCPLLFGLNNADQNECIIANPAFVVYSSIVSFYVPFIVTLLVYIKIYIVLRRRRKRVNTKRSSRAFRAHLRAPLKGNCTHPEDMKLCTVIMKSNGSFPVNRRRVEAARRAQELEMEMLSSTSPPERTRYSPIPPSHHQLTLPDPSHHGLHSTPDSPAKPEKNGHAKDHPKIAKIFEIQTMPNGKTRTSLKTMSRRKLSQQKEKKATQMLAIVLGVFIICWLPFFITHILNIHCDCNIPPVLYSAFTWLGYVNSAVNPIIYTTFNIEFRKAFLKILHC", "assay": "Receptor binding study, D2", "conditions": "mean values, n = 2, read-out: percent inhibition of control specific binding"}, "[6]": {"system": "GABAtransporter", "assay": "Receptor binding study, GABA transporter", "conditions": "1 μM; mean values, n = 2"}, "[7]": {"system": "Kainate", "assay": "Receptor binding study, Kainate", "conditions": "1 μM; mean values, n = 2"}, "[8]": {"system": "PCP", "assay": "Receptor binding study, PCP", "conditions": "1 μM; mean values, n = 2"}, "[9]": {"system": "P2Y", "assay": "Receptor binding study, P2Y", "conditions": "1 μM; mean values, n = 2"}, "[10]": {"biological_target": "M3 (Homo sapiens, UniProt P20309)", "sequence (P20309 whole entry)": "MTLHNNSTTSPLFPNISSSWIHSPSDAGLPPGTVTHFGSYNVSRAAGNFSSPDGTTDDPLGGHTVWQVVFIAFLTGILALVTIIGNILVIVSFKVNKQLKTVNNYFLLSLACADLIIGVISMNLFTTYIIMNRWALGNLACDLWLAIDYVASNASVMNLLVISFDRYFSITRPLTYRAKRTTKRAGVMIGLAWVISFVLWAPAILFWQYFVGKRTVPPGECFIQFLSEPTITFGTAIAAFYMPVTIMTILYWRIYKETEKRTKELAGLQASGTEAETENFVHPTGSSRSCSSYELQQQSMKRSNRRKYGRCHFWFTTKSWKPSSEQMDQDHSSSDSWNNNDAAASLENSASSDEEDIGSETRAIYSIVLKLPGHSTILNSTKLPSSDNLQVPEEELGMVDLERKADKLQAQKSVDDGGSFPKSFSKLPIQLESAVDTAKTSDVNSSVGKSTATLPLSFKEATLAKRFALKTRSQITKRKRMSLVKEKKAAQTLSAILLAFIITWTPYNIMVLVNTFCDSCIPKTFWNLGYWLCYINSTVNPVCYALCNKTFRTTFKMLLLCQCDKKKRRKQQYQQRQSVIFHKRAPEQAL", "assay": "Receptor binding study, M3", "conditions": "mean values, n = 2, read-out: percent inhibition of control specific binding"}, "[11]": {"biological_target": "5-HT1A (Homo sapiens, UniProt P08908)", "sequence (P08908 whole entry, species assumed)": "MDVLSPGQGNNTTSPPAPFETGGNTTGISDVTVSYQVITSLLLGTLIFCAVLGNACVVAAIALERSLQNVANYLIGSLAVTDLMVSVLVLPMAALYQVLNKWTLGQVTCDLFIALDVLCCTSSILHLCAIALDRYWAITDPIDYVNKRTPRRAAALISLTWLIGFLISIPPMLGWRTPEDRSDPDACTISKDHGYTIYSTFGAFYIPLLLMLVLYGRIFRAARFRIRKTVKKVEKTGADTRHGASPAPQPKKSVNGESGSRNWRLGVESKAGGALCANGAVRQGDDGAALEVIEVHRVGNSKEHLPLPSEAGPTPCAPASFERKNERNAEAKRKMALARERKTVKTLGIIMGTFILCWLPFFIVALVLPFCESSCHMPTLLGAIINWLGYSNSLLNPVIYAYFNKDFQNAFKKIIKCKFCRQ", "assay": "Receptor binding study, 5-HT1A", "conditions": "mean values, n = 2, read-out: percent inhibition of control specific binding"}, "[12]": {"biological_target": "5-HT3 (h) (Homo sapiens, UniProt P46098)", "sequence (P46098 24-478)": "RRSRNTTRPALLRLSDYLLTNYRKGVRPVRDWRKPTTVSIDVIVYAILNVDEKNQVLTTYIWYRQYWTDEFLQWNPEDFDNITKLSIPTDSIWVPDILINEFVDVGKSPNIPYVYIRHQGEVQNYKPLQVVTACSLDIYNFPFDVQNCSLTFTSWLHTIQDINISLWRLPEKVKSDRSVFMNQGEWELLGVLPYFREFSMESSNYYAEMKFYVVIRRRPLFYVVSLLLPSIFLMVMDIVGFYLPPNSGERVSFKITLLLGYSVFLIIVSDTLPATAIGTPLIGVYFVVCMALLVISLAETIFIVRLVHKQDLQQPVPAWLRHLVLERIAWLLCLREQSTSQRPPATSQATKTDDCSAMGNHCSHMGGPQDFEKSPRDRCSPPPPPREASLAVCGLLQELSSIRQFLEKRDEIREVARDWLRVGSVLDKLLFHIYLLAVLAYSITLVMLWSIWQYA", "assay": "Receptor binding study, 5-HT3", "conditions": "mean values, n = 2, read-out: percent inhibition of control specific binding"}, "[13]": {"biological_target": "5-HT4 (Homo sapiens, UniProt Q13639)", "sequence (Q13639 whole entry, species assumed)": "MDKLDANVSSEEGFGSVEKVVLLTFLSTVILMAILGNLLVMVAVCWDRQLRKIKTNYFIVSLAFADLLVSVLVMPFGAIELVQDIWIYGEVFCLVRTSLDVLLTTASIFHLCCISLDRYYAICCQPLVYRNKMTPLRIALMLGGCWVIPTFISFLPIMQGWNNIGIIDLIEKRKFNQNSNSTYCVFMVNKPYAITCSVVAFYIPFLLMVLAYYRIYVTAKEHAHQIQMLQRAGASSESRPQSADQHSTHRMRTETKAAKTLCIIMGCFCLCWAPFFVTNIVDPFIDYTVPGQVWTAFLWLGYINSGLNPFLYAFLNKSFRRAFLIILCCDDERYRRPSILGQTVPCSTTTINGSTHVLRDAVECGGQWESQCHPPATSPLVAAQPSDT", "assay": "Receptor binding study, 5-HT4", "conditions": "mean values, n = 2, read-out: percent inhibition of control specific binding"}, "[14]": {"biological_target": "5-HT5A (h) (Homo sapiens, UniProt P47898)", "sequence (P47898 whole entry)": "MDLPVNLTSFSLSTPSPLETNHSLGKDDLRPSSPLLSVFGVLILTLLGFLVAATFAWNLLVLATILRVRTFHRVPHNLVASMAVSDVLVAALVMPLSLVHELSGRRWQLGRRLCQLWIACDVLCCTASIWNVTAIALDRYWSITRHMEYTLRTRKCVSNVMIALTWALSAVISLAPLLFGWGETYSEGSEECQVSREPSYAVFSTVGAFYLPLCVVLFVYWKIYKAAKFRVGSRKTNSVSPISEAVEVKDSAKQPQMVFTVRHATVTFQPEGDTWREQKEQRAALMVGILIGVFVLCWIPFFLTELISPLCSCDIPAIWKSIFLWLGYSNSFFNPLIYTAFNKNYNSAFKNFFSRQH", "assay": "Receptor binding study, 5-HT5A", "conditions": "mean values, n = 2, read-out: percent inhibition of control specific binding"}, "[15]": {"biological_target": "NE transporter (Homo sapiens, UniProt P23975)", "sequence (P23975 whole entry)": "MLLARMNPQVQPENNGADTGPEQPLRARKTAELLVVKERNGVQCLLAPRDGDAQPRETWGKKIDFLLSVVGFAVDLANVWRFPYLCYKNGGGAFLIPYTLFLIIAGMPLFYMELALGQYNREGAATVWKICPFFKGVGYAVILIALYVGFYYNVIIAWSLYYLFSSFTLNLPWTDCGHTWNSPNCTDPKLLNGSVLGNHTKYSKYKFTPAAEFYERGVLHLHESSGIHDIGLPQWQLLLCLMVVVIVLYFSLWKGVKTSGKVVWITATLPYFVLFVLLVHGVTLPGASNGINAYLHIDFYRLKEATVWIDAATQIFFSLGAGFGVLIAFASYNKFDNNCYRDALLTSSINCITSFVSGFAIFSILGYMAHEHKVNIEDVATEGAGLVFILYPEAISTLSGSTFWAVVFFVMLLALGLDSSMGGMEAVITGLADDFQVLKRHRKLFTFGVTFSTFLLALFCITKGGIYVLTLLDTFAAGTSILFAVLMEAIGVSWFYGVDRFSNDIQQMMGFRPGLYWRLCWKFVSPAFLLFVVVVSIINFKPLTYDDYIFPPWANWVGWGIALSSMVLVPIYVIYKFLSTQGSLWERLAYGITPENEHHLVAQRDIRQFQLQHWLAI", "assay": "Receptor binding study, NE transporter", "conditions": "mean values, n = 2, read-out: percent inhibition of control specific binding"}, "[16]": {"biological_target": "5-HT transporter (Homo sapiens, UniProt P31645)", "sequence (P31645 whole entry, species assumed)": "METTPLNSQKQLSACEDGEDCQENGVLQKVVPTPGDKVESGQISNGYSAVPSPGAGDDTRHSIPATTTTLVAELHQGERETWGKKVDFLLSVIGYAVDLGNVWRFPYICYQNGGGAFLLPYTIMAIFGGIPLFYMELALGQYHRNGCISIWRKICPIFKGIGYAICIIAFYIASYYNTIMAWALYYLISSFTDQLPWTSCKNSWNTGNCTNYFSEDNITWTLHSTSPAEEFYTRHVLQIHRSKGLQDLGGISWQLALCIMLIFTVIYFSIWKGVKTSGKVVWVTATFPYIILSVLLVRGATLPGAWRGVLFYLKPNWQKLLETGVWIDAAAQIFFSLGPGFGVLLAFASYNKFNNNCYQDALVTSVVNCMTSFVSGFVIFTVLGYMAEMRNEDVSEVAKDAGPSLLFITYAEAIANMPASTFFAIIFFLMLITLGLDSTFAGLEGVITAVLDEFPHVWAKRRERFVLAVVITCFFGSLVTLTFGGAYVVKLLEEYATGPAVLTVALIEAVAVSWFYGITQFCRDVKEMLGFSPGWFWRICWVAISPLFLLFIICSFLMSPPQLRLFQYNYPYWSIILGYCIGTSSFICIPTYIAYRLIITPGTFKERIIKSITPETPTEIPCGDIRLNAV", "assay": "Receptor binding study, 5-HT transporter", "conditions": "read-out: percent inhibition of control specific binding"}, "[17]": {"system": "CD1 male mice", "assay": "Effects on spontaneous motor activity in mice", "type": "in vivo", "conditions": "for Horizontal activity / Vertical activity: mean ± s.e.", "experimental": "For this study, type CD1 male mice (n=8) were used. The effects of the products under study and of the reference compounds were evaluated using an apparatus consisting of a Plexiglas cage (40 cm×40 cm) surrounded by a series of photocells which monitor the movements of the animals placed inside, connected a computerised system, through which, the signals are collected and later elaborated.\nTests were carried out, after endoperitoneal administration of the products. 15 minutes after treatment, the treated animals, alternating with the controls, were placed inside the cage so as to record their spontaneous movements over a total period of 45 minutes broken down into two observation intervals (15′-45′ and 45′-60′, with respect to the time after treatment).\nTo examine the possible effects of the compounds studied on motor activity, the following parameters were considered: horizontal activity, vertical activity: total distance.\nExcept for CGS 21680 (reference compound, described in EP 0 277 917, Ciba-Geigy) which was dissolved in 0.9% NaCl, the products studied were solubilised in DMSO and then diluted in Cremofor EL and 0.9% NaCl (final concentrations: DMSO 15%, Cremofor EL 15%, NaCl 0.9%."}, "[18]": {"system": "mice", "assay": "Capacity to antagonise CGS 21680 induced catalepsy", "type": "in vivo", "conditions": "orally 5 mg/Kg and 10 mg/Kg, 30 minutes prior to CGS 21680 (10 μg/5 μl/mouse i.c.v.); scored 30′, 60′, 120′, 180′", "experimental": "10 CD1 male mice were used per group. For this test, a steel bar, 10 cm long, was placed at a height of 4.5 cm above the support surface. Onto this, were placed the front legs of the animals. The presence of catalepsy was determined by measuring the time (in seconds) the animal remained in the posture placed. Later, this parameter was placed relatively, on a scale of rising values (0 to 5) through which, the degree of catalepsy determined in both control animals and in these subjected to treatment with the substances under test could be proportionately expressed.\nFor this study, the product ST 1535 was used. Catalepsy was induced in the animals through the intracerebroventricular administration of CGS 21680 (10 μg/5 μl/mouse), 30 minutes prior to testing for the catalepsy score. The test compound was administered orally at a dose of 5 mg/Kg and 10 mg/Kg , 30 minutes prior to treatment with CGS 21680.\nThe catalepsy score was derived in the manner described following treatment with OGS 21680 after the following times: 30′, 60′ 120′, 180′."}, "[19]": {"conditions": "2.5 mg/kg endoperitoneal, interval 15′-45′ from treatment"}, "[20]": {"conditions": "2.5 mg/kg endoperitoneal, interval 45′-60′ from treatment"}, "[21]": {"conditions": "5 mg/kg endoperitoneal, interval 15′-45′ from treatment"}, "[22]": {"conditions": "5 mg/kg endoperitoneal, interval 45′-60′ from treatment"}, "[23]": {"conditions": "10 mg/kg endoperitoneal, interval 15′-45′ from treatment"}, "[24]": {"conditions": "10 mg/kg endoperitoneal, interval 45′-60′ from treatment"}, "[25]": {"conditions": "20 mg/kg endoperitoneal, interval 15′-45′ from treatment"}, "[26]": {"conditions": "20 mg/kg endoperitoneal, interval 45′-60′ from treatment"}}, "note": "Like-named read-outs stand apart in the source and are kept apart here."}
{"smiles": "CCCCc1nc(N)c2nc(-n3nccn3)n(C)c2n1", "note": "[ST 1535, 2-butyl-9-methyl-8-(2H-1,2,3-triazol-2-yl)-9H-purine-6-ylamine]", "values": [{"measurement": "Ki", "setting": "[1]", "value": "627 ± 45", "unit": "nM"}, {"measurement": "percent inhibition of control specific binding", "setting": "[2]", "value": 24, "unit": "%"}, {"measurement": "percent inhibition of control specific binding", "setting": "[3]", "value": "— (The symbol — indicates an inhibition of less than 10%.)"}, {"measurement": "percent inhibition of control specific binding", "setting": "[4]", "value": "— (The symbol — indicates an inhibition of less than 10%.)"}, {"measurement": "inhibition at 1 µM", "setting": "[5]", "value": "< 10", "unit": "%"}, {"measurement": "percent inhibition of control specific binding", "setting": "[6]", "value": "— (The symbol — indicates an inhibition of less than 10%.)"}, {"measurement": "percent inhibition of control specific binding", "setting": "[7]", "value": "— (The symbol — indicates an inhibition of less than 10%.)"}, {"measurement": "percent inhibition of control specific binding", "setting": "[8]", "value": "— (The symbol — indicates an inhibition of less than 10%.)"}, {"measurement": "percent inhibition of control specific binding", "setting": "[9]", "value": "— (The symbol — indicates an inhibition of less than 10%.)"}, {"measurement": "inhibition at 1 µM", "setting": "[10]", "value": "< 10", "unit": "%"}, {"measurement": "inhibition at 1 µM", "setting": "[11]", "value": "< 10", "unit": "%"}, {"measurement": "inhibition at 1 µM", "setting": "[12]", "value": "< 10", "unit": "%"}, {"measurement": "inhibition at 1 µM", "setting": "[13]", "value": "< 10", "unit": "%"}, {"measurement": "inhibition at 1 µM", "setting": "[14]", "value": "< 10", "unit": "%"}, {"measurement": "inhibition at 1 µM", "setting": "[15]", "value": "< 10", "unit": "%"}, {"measurement": "inhibition at 1 µM", "setting": "[16]; 1 μM, mean values, n = 2, class symbol", "value": "< 10", "unit": "%"}, {"measurement": "Horizontal activity", "setting": "[17]; [19]", "value": "5386 ± 505"}, {"measurement": "Vertical activity", "setting": "[17]; [19]", "value": "282 ± 79"}, {"measurement": "Horizontal activity", "setting": "[17]; [20]", "value": "1693 ± 266"}, {"measurement": "Vertical activity", "setting": "[17]; [20]", "value": "68 ± 21"}, {"measurement": "Horizontal activity", "setting": "[17]; [21]", "value": "7549 ± 508"}, {"measurement": "Vertical activity", "setting": "[17]; [21]", "value": "249 ± 41"}, {"measurement": "Horizontal activity", "setting": "[17]; [22]", "value": "2353 ± 199"}, {"measurement": "Vertical activity", "setting": "[17]; [22]", "value": "76 ± 16"}, {"measurement": "Horizontal activity", "setting": "[17]; [23]", "value": "7434 ± 526"}, {"measurement": "Vertical activity", "setting": "[17]; [23]", "value": "219 ± 64"}, {"measurement": "Horizontal activity", "setting": "[17]; [24]", "value": "2784 ± 345"}, {"measurement": "Vertical activity", "setting": "[17]; [24]", "value": "71 ± 32"}, {"measurement": "Horizontal activity", "setting": "[17]; [25]", "value": "10524 ± 670"}, {"measurement": "Vertical activity", "setting": "[17]; [25]", "value": "486 ± 84"}, {"measurement": "Horizontal activity", "setting": "[17]; [26]", "value": "3321 ± 363"}, {"measurement": "Vertical activity", "setting": "[17]; [26]", "value": "148 ± 36"}, {"measurement": "dose from which a significant increase of the spontaneous motor activity in mice is observed", "setting": "[17]; endoperitoneal", "value": "≥ 5", "unit": "mg/kg"}, {"measurement": "effect on CGS 21680-induced catalepsy (FIG. 2)", "setting": "[18]", "value": "significantly antagonises the appearance of catalepsy at all the observed times"}]}
{"smiles": "CCCCCc1nc(N)c2nc(-n3nccn3)n(C)c2n1", "note": "[ST 2097, 9-methyl-2-pentyl-8-(2H-1,2,3-triazol-2-yl)-9H-purine-6-ylamine]", "values": [{"measurement": "Ki", "setting": "[1]", "value": "153 ± 13", "unit": "nM"}, {"measurement": "percent inhibition of control specific binding", "setting": "[2]", "value": 34, "unit": "%"}, {"measurement": "percent inhibition of control specific binding", "setting": "[3]", "value": "— (The symbol — indicates an inhibition of less than 10%.)"}, {"measurement": "percent inhibition of control specific binding", "setting": "[4]", "value": "— (The symbol — indicates an inhibition of less than 10%.)"}, {"measurement": "inhibition at 1 µM", "setting": "[5]", "value": "< 10", "unit": "%"}, {"measurement": "percent inhibition of control specific binding", "setting": "[6]", "value": "— (The symbol — indicates an inhibition of less than 10%.)"}, {"measurement": "percent inhibition of control specific binding", "setting": "[7]", "value": "— (The symbol — indicates an inhibition of less than 10%.)"}, {"measurement": "percent inhibition of control specific binding", "setting": "[8]", "value": "— (The symbol — indicates an inhibition of less than 10%.)"}, {"measurement": "percent inhibition of control specific binding", "setting": "[9]", "value": "— (The symbol — indicates an inhibition of less than 10%.)"}, {"measurement": "inhibition at 1 µM", "setting": "[10]", "value": "< 10", "unit": "%"}, {"measurement": "inhibition at 1 µM", "setting": "[11]", "value": "< 10", "unit": "%"}, {"measurement": "inhibition at 1 µM", "setting": "[12]", "value": "< 10", "unit": "%"}, {"measurement": "inhibition at 1 µM", "setting": "[13]", "value": "< 10", "unit": "%"}, {"measurement": "inhibition at 1 µM", "setting": "[14]", "value": "< 10", "unit": "%"}, {"measurement": "inhibition at 1 µM", "setting": "[15]", "value": "< 10", "unit": "%"}, {"measurement": "inhibition at 1 µM", "setting": "[16]", "value": 13, "unit": "%"}]}
